Assay results: article PMC9917184, “Synthesis and Biological Evaluation of Potential Oncoimmunomodulator Agents” (International Journal of Molecular Sciences, 2023)

Biological target: PD-L1 (Homo sapiens, UniProt Q9NZQ7)
Experiment: Total PD-L1 relative quantification by flow cytometry in cancer cell lines
Format: cell-based
Set-up: Alexa Fluor® 647 Rabbit monoclonal Anti-PD-L1 (ab215251); endogenous in cells; host or cells: HT-29

PD-L1, sequence (Q9NZQ7 19-290): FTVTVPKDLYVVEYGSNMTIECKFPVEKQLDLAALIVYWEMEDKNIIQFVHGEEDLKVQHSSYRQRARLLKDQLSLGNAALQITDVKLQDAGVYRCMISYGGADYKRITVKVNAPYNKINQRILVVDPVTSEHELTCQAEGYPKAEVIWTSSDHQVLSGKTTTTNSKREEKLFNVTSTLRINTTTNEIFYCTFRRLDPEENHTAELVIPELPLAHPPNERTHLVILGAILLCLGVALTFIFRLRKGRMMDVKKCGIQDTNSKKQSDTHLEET

**Q.** With `COc1ccc(C(OCCc2ccc(CCn3cc(-c4ccc(Br)cc4)nn3)cc2)(c2ccccc2)c2ccc(OC)cc2)cc1` [Compound 3, 1-(4-(2-(bis(4-methoxyphenyl)(phenyl)methoxy)ethyl)phenethyl)-4-(4-bromophenyl)-1H-1,2,3-triazole] as the compound, how does the remaining activity at 10 µM (24 h, HT-29, dose 10 µM) read?
**A.** Its remaining activity at 10 µM is 101 ± 2%.

**Q.** What about the remaining activity at 25 µM (24 h, HT-29, dose 25 µM) of the same compound?
**A.** Its remaining activity at 25 µM is 111 ± 4%.

**Q.** And the remaining activity at 50 µM (24 h, HT-29, dose 50 µM)?
**A.** Its remaining activity at 50 µM is 90 ± 3%.

**Q.** And the remaining activity at 10 µM (MCF7, 24 h, MCF-7, dose 10 µM)?
**A.** The remaining activity at 10 µM was 52 ± 2%.

**Q.** And the remaining activity at 25 µM (MCF7, 24 h, MCF-7, dose 25 µM)?
**A.** The remaining activity at 25 µM was 58 ± 3%.

**Q.** And the remaining activity at 50 µM (MCF7, 24 h, MCF-7, dose 50 µM)?
**A.** The remaining activity at 50 µM was 69 ± 4%.
